Test results as given in patent US20110152267A1, “Compositions and Methods for Treating Hyperproliferative Disorders” (Texas Tech University System, priority 2009, published 2011).

Assays:
Format in all cases: cell-based, human
[1] = system: NCI-H-1792 lung adenocarcinoma cell line; test: DIMSCAN cytotoxicity, fenretinide + L-threo-sphinganines 3:1 (Example B12); conditions: 96 h
Experimental: (§1) Cytotoxicity Assay—Once again, cytotoxicity is determined using the DIMSCAN assay system (R. Proffitt et al., Cytometry 24, 204-213 (1996); T. Frgala et al., Mol Cancer Ther. 6:886-97, 2007). The system employs digital imaging microscopy to quantify viable cells, which selectively accumulate fluorescein diacetate to become brightly fluorescent. The system is capable of measuring cytotoxicity over a 4-5 log dynamic range by quenching the residual fluorescence of dead and dying cells with eosin Y and quantifying the total fluorescence of viable cells using digital thresholding. Measured fluorescence is directly proportionate to the number of viable cells. A comparison of the total fluorescence of a drug-treated cell population to the fluorescence of a similar number of untreated cells yields a survival fraction. In brief, 2000 to 10,000 cells/well (depending on size and growth rates) are replicate plated into 60 wells of a 96-well tissue culture plate in 0.1 mL of whole medium and allowed to attach overnight. Drug(s) are then added in 0.05 mL of whole medium to the final concentrations indicated. Drugs (fenretinide, and various chain length L-threo-sphinganines) were tested both as single agents and in a 3:1 ratio of fenretinide:sphinganine. C18-L-threo-sphinganine, or “safingol,” was also tested and results shown for reference. There are 12 wells treated per drug concentration. Twelve wells receive drug vehicle-only to the appropriate final concentration and serve as controls for the plate. Cells are incubated for 96 hours at 37° C. in ambient air with 5% CO2. Fluorescein diacetate is then added to each well in 0.05 mL media to a final concentration of 8 microgram/mL. Cells are incubated for a further 15 minutes at 37° C. and 0.03 mL of 0.5% eosin Y is added to each well. Total fluorescence of viable cells is then measured by digital imaging microscopy. Results were graphed as the ratio of the fluoresecence of drug-treated wells to non-drug treated control wells (i.e., Survival Fraction). All tests were performed at least twice. Representative results are shown.
(§2) The Combination Index (CI) is a term to describe mathematical modeling of the pharmacologic effects on cytotoxicity (cell death) of two drugs in combination based. Cytotoxic “synergy” is defined as a cell death affect which is greater than would be expected from a simple product of the single agent cytotoxicities alone (i.e. an “additive” effect). By Chou-Talalay analysis, a CI<0.9 on a Fraction Affected (“Fa”, i.e. fraction of cells killed) indicates synergy, with smaller numbers indicating greater synergy; a CI of 0.9-1.1 signifies an additive or near-additive effect; and a CI>1.1 means the drug combination is antagonistic.
Fenretinide and L-threo-sphinganines tested in human lung adenocarcinoma (lung cancer) cell line, NCI-H-1792.

[2] = system: CHLA-90 pediatric neuroblastoma cell line; test: DIMSCAN cytotoxicity, fenretinide + L-threo-sphinganines 3:1 (Example B21)
Experimental: as §1, §2
Fenretinide and L-threo-sphinganines tested in human pediatric neuroblastoma (a nerve-related, solid tumor cancer) cell line, CHLA-90.

[3] = system: CHLA-266 brain cancer (PNET) cell line; test: DIMSCAN cytotoxicity dose-response with fenretinide (Examples A, FIGS. 2, 8, 13); conditions: 2% oxygen, at one or more doses, +96 hrs
Experimental: (§3) Cytotoxicity Assay: Cytotoxicity in cell lines was determined using a fluorescence-based assay employing digital imaging microscopy (DIMSCAN)(after Fragala, et al, Mol Cancer Ther, 6:886-897, 2007). DIMSCAN quantitates viable cells which selectively accumulate fluorescein diacetate and is capable of measuring cytotoxicity over a 4-5 log dynamic range by quantifying total fluorescence per well (which is proportional to viable, clonogenic cells) after eliminating background fluorescence using digital thresholding and eosin Y quenching. Briefly, cell lines were seeded into 96-well plates in 100 µL of complete culture medium (10-20% serum) per well. Cells were incubated overnight in 2%, 5% or 20% oxygen (room air) prior to addition of drugs in […] volumes of complete medium to various final drug concentrations in replicates of 12 wells per concentration. In assays employing D-threo-PPMP, PPMP was employed at a fixed, minimally-toxic, final concentration of 10 μM in each well. Control wells received ethanol (final concentration=0.12%-0.20%) in complete medium equivalent to the maximum final ethanol concentration of drug-treated wells. Plates were incubated at various oxygen concentrations to simulate physiological hypoxia (i.e., 2% oxygen=typical solid tumor oxygen levels; 5%=bone marrow oxygen levels for leukemias; 20% room air=supraphysiological oxygen for comparison with typical laboratory culture conditions). Plates were assayed at 3-4 days after initiating drug exposure depending on the growth properties of each cell line, to allow for maximum cell death and outgrowth of surviving cells. To measure cytotoxicity, FDA (stock solution of 1 mg/ml in DMSO) was added, in 50 µL of complete medium per well, to a final concentration of 10 µg/ml. The plates were incubated for an additional 15-30 minutes at 37 C and then 30 µL of eosin Y (0.5% in normal saline) was added per well. Total fluorescence of each well was then measured using digital imaging microscopy. […]

[4] = system: COG-LL-317 Acute Lymphoblastic Leukemia (ALL) cancer cell line; test: DIMSCAN cytotoxicity dose-response with fenretinide (Examples A, FIGS. 5, 11, 17); conditions: 5% oxygen, at one or more doses, +96 hrs
Experimental: as §3

[5] = system: MCF-7/ADR (OVCAR-8/ADR) ovarian cancer cell line; test: DIMSCAN cytotoxicity dose-response with fenretinide (Examples A, FIG. 16); conditions: 2% oxygen, at one or more doses, +96 hrs
Experimental: Cytotoxicity Assay: Cytotoxicity in cell lines was determined using a fluorescence-based assay employing digital imaging microscopy (DIMSCAN)(after Fragala, et al, Mol Cancer Ther, 6:886-897, 2007). DIMSCAN quantitates viable cells which selectively accumulate fluorescein diacetate and is capable of measuring cytotoxicity over a 4-5 log dynamic range by quantifying total fluorescence per well (which is proportional to viable, clonogenic cells) after eliminating background fluorescence using digital thresholding and eosin Y quenching. Briefly, cell lines were seeded into 96-well plates in 100 µL of complete culture medium (10-20% serum) per well. Cells were incubated overnight in 2%, 5% or 20% oxygen (room air) prior to addition of drugs in […] volumes of complete medium to various final drug concentrations in replicates of 12 wells per concentration. In assays employing D-threo-PPMP, PPMP was employed at a fixed, minimally-toxic, final concentration of 10 μM in each well. Control wells received ethanol (final concentration=0.12%-0.20%) in complete medium equivalent to the maximum final ethanol concentration of drug-treated wells. […] Total fluorescence of each well was then measured using digital imaging microscopy. […]

[6] = 4-HPR 1.5 μM + L-threo-sphinganine 0.5 μM
[7] = 4-HPR 3 μM + L-threo-sphinganine 1 μM
[8] = 4-HPR 6 μM + L-threo-sphinganine 2 μM
[9] = 4-HPR 9 μM + L-threo-sphinganine 3 μM
[10] = 4-HPR 12 μM + L-threo-sphinganine 4 μM

SMILES	CI (Combination Index) [1, 6]	Fa (fraction affected) [1, 6]	CI (Combination Index) [1, 7]	Fa (fraction affected) [1, 7]	CI (Combination Index) [1, 8]	Fa (fraction affected) [1, 8]	CI (Combination Index) [1, 9]	Fa (fraction affected) [1, 9]	CI [2, 7]	Fa [2, 7]	CI [2, 8]	Fa [2, 8]	CI [2, 9]	Fa [2, 9]	Fa [2, 10]	C.I. (Combination Index) with fenretinide [3]	C.I. (Combination Index) with fenretinide [4]	CI [2, 10]	C.I. (Combination Index) with fenretinide [5]
CCCCCCCCCCCCCCCC[C@H](O)[C@@H](N)CO [C19, (2S,3S)-2-amino-1,3-nonadecanediol]	1.1	0.138	1.1	0.736	1.2	0.965	0.9	0.993	0.4	0.9960	0.1	0.9993	0.1	1	1.0000	< 1	< 1		
CCCCCCCCCCCCCCCCC[C@H](O)[C@@H](N)CO [C20, (2S,3S)-2-amino-1,3-icosanediol]	0.9	0.287	0.7	0.852	0.7	0.972	0.5	0.998	0.5	0.996	0.7	0.999	1.1	0.999	0.9999	< 1	< 1	1.5	< 1
CCCCCCCCCCCCCCC[C@H](O)[C@@H](N)CO [C18, (2S,3S)-2-amino-1,3-octadecanediol, reference compound]	1.2	0.243	0.8	0.756	0.6	0.983	0.4	0.999	0.5	0.996	0.3	0.9993	0.4	0.9999	1				
CCCCCCCCC[C@H](O)[C@@H](N)CO [C12]	1.0	0.217	1.3	0.642	1.4	0.951	1.8	0.975											
CCCCCCCCCCCCCC[C@H](O)[C@@H](N)CO [C17, (2S,3S)-2-amino-1,3-heptadecanediol]	1.1	0.112	1.0	0.661	0.9	0.974	1.0	0.993	0.4	0.994	0.4	0.999	0.6	0.9997	1	< 1	< 1	0.3	
